# Data taken from patent US9133207B2, “Tetrandrine derivatives with substituted 5-carbon, preparation method and use thereof” (Hangzhou Bensheng Pharmaceutical Co., Ltd., priority 2011, dated 2015).
# Key:
# [1] = tested on: Kasumi-1 (acute myeloid leukemia M2 type, AML-M2); assay: Leukemia cell growth inhibition, MTT, 72 h (Example 5); type: cell-based, human; details: Homo sapiens, Kasumi 1
# Method in brief: (§1)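 6000 cells per well were seeded in RPMI 1640 with 10% FBS, exposed to graded concentrations of 5-substituted tetrandrine derivatives, and held 72 hours at 37° C, 5% CO2. Viable cell concentration was then measured by MTT.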
# [2] = tested on: Jurkat (acute lymphoblastic leukemia, ALL); assay: as above; type: cell-based, human; details: for IC50 / IC90: Homo sapiens, Jurkat, 72 h, MTT
# Method in brief: as §1
# [3] = tested on: NB4 (acute promyelocytic leukemia, AML); assay: as above; type: cell-based, human; details: Homo sapiens; 72 h, MTT
# Method in brief: as §1
# [4] = tested on: H9 (acute lymphoblastic leukemia, ALL); assay: as above; type: cell-based, human; details: Homo sapiens; 72 h, MTT
# Method in brief: as §1
# [5] = tested on: K562/adr (drug-resistant, chronic myeloid leukemia, CML); assay: as above; type: cell-based, human; details: Homo sapiens, K562/Adr; 72 h, MTT
# Method in brief: as §1
# [6] = tested on: Hep-2 (laryngeal carcinoma); assay: Solid tumor cell growth inhibition, MTT, 72 h (Example 7); type: cell-based, human; details: Homo sapiens; 72 h, MTT, Hep 2
# Method in brief: (§2)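 Cells (4000/well) were seeded in DMEM high glucose with 10% FBS and grown 24 h at 37 °C, 5% CO2, then exposed to tetrandrine derivatives at different concentrations for 72 h. Viable cells were measured by MTT, with viability expressed as % of untreated control (100%).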
# [7] = tested on: PC-3 (prostate cancer); assay: as above; type: cell-based, human; details: Homo sapiens; 72 h, MTT, PC-3
# Method in brief: as §2
# [8] = tested on: PANC-1 (pancreatic cancer); assay: as above; type: cell-based, human; details: Homo sapiens; 72 h, MTT, PANC-1
# Method in brief: as §2
# [9] = tested on: MG63 (osteosarcoma); assay: as above; type: cell-based, human; details: Homo sapiens; 72 h, MTT, MG-63
# Method in brief: as §2
# [10] = tested on: CaES-17 (esophageal cancer cell); assay: as above; type: cell-based, human; details: Homo sapiens, CaEs17; 72 h, MTT, CAES-17
# Method in brief: as §2
# [11] = tested on: RPMI8226 (multiple myeloma); assay: Multiple myeloma cell growth inhibition, MTT, 72 h (Example 6); type: cell-based, human; details: Homo sapiens, RPMI-8226; 72 h, MTT, RPMI8226
# Method in brief: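 RPMI8226 cells (6000 per well) in RPMI 1640 with 10% FBS were exposed to a range of tetrandrine derivative concentrations for 72 h at 37 °C under 5% CO2. Viable cell concentration was then measured by MTT.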
# [12] = tested on: Hela (human cervical cancer cell); assay: Solid tumor cell growth inhibition, MTT, 72 h (Example 7); type: cell-based; details: Homo sapiens; 72 h, MTT, Hela
# Method in brief: as §2
# [13] = tested on: Becap37 (human breast cancer cell); assay: as above; type: cell-based; details: Homo sapiens; 72 h, MTT, Becap-37
# Method in brief: as §2
# [14] = tested on: U87 MG (malignant glioma cell); assay: as above; type: cell-based; details: Homo sapiens, U-87 MG
# Method in brief: as §2
# [15] = tested on: SK-OV-3 (ovarian cancer cell); assay: as above; type: cell-based; details: Homo sapiens
# Method in brief: as §2
# [16] = tested on: MGC 803 (human gastric cancer cell); assay: as above; type: cell-based; details: Homo sapiens
# Method in brief: as §2
# [17] = tested on: RKO (human colon adenocarcinoma cell); assay: as above; type: cell-based; details: Homo sapiens; 72 h, MTT, RKO
# Method in brief: as §2
# [18] = tested on: Huh7 (human liver cancer cell); assay: as above; type: cell-based; details: Homo sapiens; 72 h, MTT, Huh-7
# Method in brief: as §2
# [19] = tested on: A549 (human lung cancer); assay: as above; type: cell-based; details: Homo sapiens; 72 h, MTT, A549
# Method in brief: as §2
# [20] = tested on: CNE (nasopharyngeal carcinoma cell); assay: as above; type: cell-based; details: Homo sapiens
# Method in brief: as §2
compound,measurement,setting,value
CCN1CCN(Cc2c3c4c(c(OC)c2OC)Oc2cc5c(cc2OC)CCN(C)[C@H]5Cc2ccc(cc2)Oc2cc(ccc2OC)C[C@@H]4N(C)CC3)CC1 [BS-TE-342],IC50,[1],0.75 µg/mL
same,IC90,[1],3.1 µg/mL
same,IC50,[2],0.8 µg/mL
same,IC90,[2],4.05 µg/mL
same,IC50,[3],0.6 µg/mL
same,IC90,[3],1.6 µg/mL
same,IC50,[4],1.11 µg/mL
same,IC90,[4],2.32 µg/mL
same,IC50,[5],0.55 µg/mL
same,IC90,[5],2.15 µg/mL
same,IC50,[6],1.86 µg/mL
same,IC90,[6],7.19 µg/mL
same,IC50,[7],1.79 µg/mL
same,IC90,[7],2.4 µg/mL
same,IC50,[8],1.92 µg/mL
same,IC90,[8],6.84 µg/mL
same,IC50,[9],0.9 µg/mL
same,IC90,[9],1.9 µg/mL
same,IC50,[10],2.21 µg/mL
same,IC90,[10],12.4 µg/mL
same,IC50,[11],0.006 µg/mL
same,IC90,[11],0.45 µg/mL
same,IC50,[12],1.69 µg/mL
same,IC90,[12],4.1 µg/mL
same,IC50,[13],1.1 µg/mL
same,IC90,[13],4.5 µg/mL
same,IC50,[14],0.3 µg/mL
same,IC90,[14],1.16 µg/mL
same,IC50,[15],2 µg/mL
same,IC90,[15],> 16 µg/mL
same,IC50,[16],1.38 µg/mL
same,IC90,[16],6.55 µg/mL
same,IC50,[17],0.69 µg/mL
same,IC90,[17],1.75 µg/mL
same,IC50,[18],1.31 µg/mL
same,IC90,[18],2.46 µg/mL
same,IC50,[19],3.2 µg/mL
same,IC90,[19],16 µg/mL
same,IC50,[20],1.6 µg/mL
same,IC90,[20],3.7 µg/mL
COc1ccc2cc1Oc1ccc(cc1)C[C@H]1c3cc(c(OC)cc3CCN1C)Oc1c(OC)c(OC)c(CN3CCCC(C)C3)c3c1[C@H](C2)N(C)CC3 (stereo partly drawn) [BS-TE-346],IC50,[1],0.5 µg/mL
same,IC90,[1],2.68 µg/mL
same,IC50,[2],0.58 µg/mL
same,IC90,[2],3.79 µg/mL
same,anti-Jurkat activity increase over tetrandrine,[2]; compared with tetrandrine,~4 fold
same,IC50,[3],0.54 µg/mL
same,IC90,[3],1.5 µg/mL
same,IC50,[4],1.01 µg/mL
same,IC90,[4],2.3 µg/mL
same,IC50,[5],0.31 µg/mL
same,IC90,[5],2.05 µg/mL
same,IC50,[6],1.79 µg/mL
same,IC90,[6],6.83 µg/mL
same,IC50,[7],2.92 µg/mL
same,IC90,[7],4.9 µg/mL
same,IC50,[8],2.31 µg/mL
same,IC90,[8],8.26 µg/mL
same,IC50,[9],0.8 µg/mL
same,IC90,[9],1.5 µg/mL
same,IC50,[10],1.29 µg/mL
same,IC90,[10],7.23 µg/mL
same,IC50,[11],0.02 µg/mL
same,IC90,[11],0.06 µg/mL
same,IC50,[12],1.83 µg/mL
same,IC90,[12],5 µg/mL
same,IC50,[13],0.8 µg/mL
same,IC90,[13],2.3 µg/mL
same,IC50,[14],0.19 µg/mL
same,IC90,[14],0.57 µg/mL
same,IC50,[15],3.9 µg/mL
same,IC90,[15],> 16 µg/mL
same,IC50,[16],0.9 µg/mL
same,IC90,[16],4.98 µg/mL
same,IC50,[17],0.73 µg/mL
same,IC90,[17],1.9 µg/mL
same,IC50,[18],1.63 µg/mL
same,IC90,[18],2.49 µg/mL
same,IC50,[19],2.5 µg/mL
same,IC90,[19],8 µg/mL
same,IC50,[20],2.5 µg/mL
same,IC90,[20],5.4 µg/mL
